# In US8835425B2, “Use of selective GABA A α5 negative allosteric modulators for the treatment of central nervous system conditions” (Hoffmann-La Roche Inc., priority 2010, dated 2014):
# Where two headings read alike, the source gives them in different places.
# Columns and labels:
# [1] = test system: hippocampal slices of Ts65Dn mice; assay: Long term potentiation in hippocampal slices after chronic treatment; type: in vivo; conditions: 20 mg/kg p.o. for six weeks, vs control mice
# Method: The effect of chronic administration of 8581 and R1 on LTP was evaluated in the Ts65Dn mouse model of Down syndrome. 8581, R1 (20 mg/kg p.o.) or vehicle was administered for six weeks. Mice were decapitated 1 hour after the last administration and the brains were rapidly removed. The hippocampi were dissected and 400-μm slices were cut with a tissue chopper. […] Field excitatory postsynaptic potentials (fEPSPs) were recorded from the CA1 stratum radiatum with a glass micropipette (1-4 MΩ) containing 2 M NaCl and evoked by stimulation of the Schaffer collaterals with insulated bipolar platin/iridium electrodes >500 μm away from the recording electrode. The stimulus strength was adjusted to evoke fEPSPs equal to 50% of the relative maximum amplitude without superimposed population spike. After stable baseline recordings (100 μs pulse-duration, 0.033 Hz), long term potentiation (LTP) was induced by TBS (10 trains of 5 pulses at 100 Hz and intervals of 200 ms). The duration of the stimulation pulses was doubled during the tetanus. After 20 min of baseline recording, LTP was induced and recorded for 80 min in each individual hippocampal slice. […] For the analysis, fEPSP slopes were expressed as a percentage of the baseline values recorded. Results from several slices were expressed as mean±SEM. […]
# Nf1+/− mice = assay: Spatial learning of Nf1+/− mice in the Morris water maze; type: in vivo
# Method: 1 week after handling, mice were trained with two consecutive trials per day for 8-9 days 30 minutes after i.p. injection of 8581 or vehicle. In each trial, mice were given 60 s to find the platform. After each trial, mice were put on the platform for 15 s. On the day of probe trial (Day 3, Day 5, Day 7, and Day 9) 60 s of probe trial was performed after training. […] Two different measures of spatial learning (% search in quadrant (FIG. 16) and average proximity to the target platform (FIG. 17)) show similarly, that active pharmaceutical compounds used in present invention rescue spatial learning deficits of Nf1+/− mice (CO/veh (n=10), Nf1/veh (n=9), CO/8581 (n=10), and Nf1/8581 (n=11).
# Effects of active pharmaceutical compounds used in present invention on the performance of Nf1+/− mice were tested under conditions in which the spatial learning of the mutants was indistinguishable from controls (less extinction due to lower number of probe trials). Mean percentage of time spent in each quadrant during a probe trial in plotted in FIG. 18. Average proximity to the target quadrant is plotted in FIG. 19. […] On probe trial 1 and 2 (days 5 and 7), all groups searched selectively in the target quadrant (p<0.01), and there were no differences between groups.
# Ts65Dn and control mice = assay: Exploratory activity: hole board; type: in vivo; conditions: 20 mg/kg p.o. chronic; for ABA index / Crossings / Number of Head-dippings / Rearings / Time exploring holes: hole board
# Method: For mice studies, active pharmaceutical compounds of present invention were formulated in chocolate-milk (Puleva, Barcelona, Spain). Active pharmaceutical compounds of present invention or vehicle were administered p.o. at a dose of 20 mg/kg for six weeks. Their administration was prolonged during the 30 days of the behavioral assessment.
# The hole board is a wooden box (32×32×30 cm) with four holes. The floor is divided into nine 10 cm squares. In a single 5 minute trial the number of explorations, the time spent exploring each hole, and overall activity in the apparatus were measured. A repetition index was also calculated (exploration of holes previously explored) as a function of the number of ABA alternations.
# [2] = test system: hippocampus of TS and CO mice; assay: Hippocampal neurogenesis, granule cell density and GAD+ boutons after chronic treatment; type: in vivo
# From the text: Alterations in hippocampal morphology such as reductions in granule cell density and hippocampal neurogenesis have also been implicated in the learning deficits shown by Ts65Dn mice. Spatial learning is known to depend on the functional integrity of the hippocampus, a structure that plays a key role in information encoding and retrieving in the CNS. […] Also, neuronal survival of the cells that have undergone maturation was also normalized in TS mice, as shown by the increase in DAPI+ cells found in TS mice after chronic 8581 administration (p=0.026; FIG. 14).
# Control mice (B16;129F1) = assay: Contextual fear conditioning; type: in vivo
# Method: Control mice (B16;129F1) were trained with a contextual fear-conditioning protocol using either one trial per day for one day (FIG. 20) or two consecutive days (FIG. 21). On the training day, 30 minutes after i.p. injection of 8581 or vehicle, mice were placed in training chamber. A foot shock (1 s, 0.4 mA) was delivered 40 s after placement. Conditioned response (percentage freezing time of the mice) was recorded 24 h after training by using automated procedures. Average freezing levels during the first 30 s of each training day and 24 hr after the last training trial were plotted.
# human GABA A α2β3γ2 = human GABA A α2β3γ2 (Homo sapiens, UniProt P18507+P47869); assay: [3H]flumazenil competition binding, HEK293 cells expressing human α2β3γ2; set-up: expressed in transfected cells; host or cells: HEK293; conditions: for hKi α2/hKi α5: binding selectivity ratio
# [3] = 8581 concentration in serum after i.p. injection; type: in vivo, mice; conditions: ip; for concentration at 0.5 h: 0.5 h after i.p. injection; for concentration at 3 h: 3 h after i.p. injection; for concentration at 7 h: 7 h after i.p. injection; for concentration at 24 h: 24 h after i.p. injection
# Method: Table 5. 8581 concentration in serum (ng/ml) of Nf1+/− and control mice 0.5, 3, 7, and 24 hours after i.p. injection
# [4] = TS mice, chronic administration
# [5] = B16;129F1, mouse, 0.1 mg/kg, control mice
# [6] = B16;129F1, mouse, 1 mg/kg, control mice
smiles,measurement,setting,value
"FC(F)c1ncn2c1Cn1ncnc1-c1cc(Br)ccc1-2 [Compound 8581, 3-Bromo-10-difluoromethyl-9H-imidazo[1,5-a][1,2,4]triazolo[1,5-d][1,4]benzodiazepine]",LTP induced in hippocampal slices of treated Ts65Dn animals,[1],not different from that induced in hippocampal slices of control mice
same,performance of Nf1+/− mice under conditions that occlude their behavioral deficits,Nf1+/− mice; 1 mg/kg,does not affect the performance
same,spatial learning deficits of Nf1+/− mice,"Nf1+/− mice; Nf1+/− mice, 1 mg/kg i.p. 30 minutes before training, probe trials",rescued the spatial learning deficits
same,hyperactivity (crossings) of Ts65Dn mice in hole board,Ts65Dn and control mice; Ts65Dn mice,reduced this hyperactivity
same,normalization of ABA index of Ts65Dn mice,Ts65Dn and control mice; Ts65Dn mice,normalized
same,ABA index,Ts65Dn and control mice; Ts65Dn mice,3.89
same,Crossings,Ts65Dn and control mice; Ts65Dn mice,106.11
same,Number of Head-dippings,Ts65Dn and control mice; Ts65Dn mice,18.22
same,Rearings,Ts65Dn and control mice; Ts65Dn mice,20.67
same,Time exploring holes,Ts65Dn and control mice; Ts65Dn mice,26.28
same,ABA index,Ts65Dn and control mice; control mice,2.64
same,Crossings,Ts65Dn and control mice; control mice,73.27
same,Number of Head-dippings,Ts65Dn and control mice; control mice,14.82
same,Rearings,Ts65Dn and control mice; control mice,17.73
same,Time exploring holes,Ts65Dn and control mice; control mice,30.43
same,number of GABAergic synapses (GAD+) in CO mice,"[2]; CO mice, chronic treatment",non-significant tendency to increase
same,density of proliferating (Ki67+) cells in hippocampus,[2]; [4],completely restored the density of proliferating cells
same,"neuronal survival (DAPI+ cells, granular cell layer)",[2]; [4],normalized
same,number of GAD positive boutons in hippocampus,"[2]; TS mice, chronic treatment",decreased dramatically
same,"contextual conditioning, training for two consecutive days","Control mice (B16;129F1); control mice, 1 mg/kg i.p.",significant increase in contextual conditioning
same,freezing at 24 hr after training,"Control mice (B16;129F1); control mice, 3 mg/kg i.p., one training day",significantly enhanced freezing
same,contextual fear conditioning dose response curve,"Control mice (B16;129F1); control mice, 0.3, 1.0 and 3.0 mg/kg",dose-dependent increase in contextual fear conditioning
same,Ki,"human GABA A α2β3γ2; [3H]flumazenil competition, human α2β3γ2, read-out: hKi α2",185 nM
same,hKi α2/hKi α5,human GABA A α2β3γ2,40
same,concentration at 0.5 h,[3]; [5],9.45 ± 3.05 ng/mL
same,concentration at 0.5 h,[3]; [6],271 ± 1 ng/mL
same,concentration at 3 h,[3]; [5],< 0.5 ng/mL
same,concentration at 3 h,[3]; [6],11.9 ± 2.51 ng/mL
same,concentration at 7 h,[3]; [5],< 0.5 ng/mL
same,concentration at 7 h,[3]; [6],< 0.5 ng/mL
same,concentration at 24 h,[3]; [5],< 0.5 ng/mL
same,concentration at 24 h,[3]; [6],< 0.5 ng/mL
same,concentration at 0.5 h,"[3]; mouse, 0.1 mg/kg, Nf1+/− mice",11 ± 1.73 ng/mL
same,concentration at 0.5 h,"[3]; mouse, 1 mg/kg, Nf1+/− mice",192 ± 35 ng/mL
same,concentration at 3 h,"[3]; mouse, 0.1 mg/kg, Nf1+/− mice",< 0.5 ng/mL
same,concentration at 3 h,"[3]; mouse, 1 mg/kg, Nf1+/− mice",8.95 ± 0.5 ng/mL
same,concentration at 7 h,"[3]; mouse, 0.1 mg/kg, Nf1+/− mice",< 0.5 ng/mL
same,concentration at 7 h,"[3]; mouse, 1 mg/kg, Nf1+/− mice",< 0.5 ng/mL
same,concentration at 24 h,"[3]; mouse, 0.1 mg/kg, Nf1+/− mice",< 0.5 ng/mL
same,concentration at 24 h,"[3]; mouse, 1 mg/kg, Nf1+/− mice",< 0.5 ng/mL
"Cc1onc(-c2ccc(F)cc2)c1COc1ccc(C(=O)N2CCS(=O)(=O)CC2)cn1 [Compound R1, (1,1-Dioxo-1,6-thiomorpholin-4-yl)-{6-[3-(4-fluoro-phenyl)-5-methyl-isoxazol-4-ylmethoxy]-pyridin-3-yl}-methanone]",LTP induced in hippocampal slices of treated Ts65Dn animals,[1],not different from that induced in hippocampal slices of control mice
same,hyperactivity (crossings) of Ts65Dn mice in hole board,Ts65Dn and control mice; Ts65Dn mice,reduced this hyperactivity
same,ABA index,Ts65Dn and control mice; Ts65Dn mice,4.25
same,Crossings,Ts65Dn and control mice; Ts65Dn mice,93.19
same,Number of Head-dippings,Ts65Dn and control mice; Ts65Dn mice,20.50
same,Rearings,Ts65Dn and control mice; Ts65Dn mice,13.19
same,Time exploring holes,Ts65Dn and control mice; Ts65Dn mice,37.58
same,ABA index,Ts65Dn and control mice; control mice,4.06
same,Crossings,Ts65Dn and control mice; control mice,72.13
same,Number of Head-dippings,Ts65Dn and control mice; control mice,16.13
same,Rearings,Ts65Dn and control mice; control mice,13.86
same,Time exploring holes,Ts65Dn and control mice; control mice,28.28
same,Ki,human GABA A α2β3γ2,502 nM
same,hKi α2/hKi α5,human GABA A α2β3γ2,107
